Measurements as given in patent US9277747B2, “Agricultural composition comprising pH sensitive agricultural chemicals and organic pH buffer” (NUTRIAG LTD., priority 2010, dated 2016).

Experiments:
[1] = known triarylmethane dyes; colour change from lower pH to higher pH; cited from earlier work
[2] = Storage stability of concentrates at elevated temperatures; details: pH indicator in agricultural concentrate with carbohydrate acids as pH modifying agent

stability of the pH indicator in the presence of carbohydrate acids / carbohydrate acid mixture [2]	SMILES	Range of pH colour transition [1]
	Cc1c(C2(c3cc(Br)c(O)c(Br)c3C)OS(=O)(=O)c3ccccc32)cc(Br)c(O)c1Br [bromocresol green]	pH 3.8-5.4
	Cc1cc(C2(c3cc(C)c(O)c(Br)c3)OS(=O)(=O)c3ccccc32)cc(Br)c1O [bromocresol purple]	pH 5.2-6.8
	O=S1(=O)OC(c2cc(Br)c(O)c(Br)c2)(c2cc(Br)c(O)c(Br)c2)c2ccccc21 [bromophenol blue]	pH 3.0-4.6
low stability	O=S1(=O)OC(c2ccc(O)c(Cl)c2)(c2ccc(O)c(Cl)c2)c2ccccc21 [chlorophenol red]	pH 4.8-6.7
